# Reference: patent publication US10765675B2, “Compositions and methods for treating Ewing family tumors” (priority 2015, dated 2020)
# pEC50: −log10 of the molar value. Counter-ions that a name gives are not always drawn.
# Columns and labels:
# [1] = tested on: sarcomas; settings: cited from earlier work
# [2] = tested on: DNA damage and DNA repair pathway genes in TC-32 cells; settings: 12 h
# Excerpt: (§2) Housekeeping genes were included on the array to normalize RNA amounts.
# [3] = tested on: DNA damage and DNA repair pathway genes in TC-71 cells; settings: 12 h
# Excerpt: as §2
# [4] = tested on: MB231-Bo cancer cells; settings: same doses as tested on TC-32 and TC-71 cells
# Description: (§3) The TC-32 cell line was derived from a newly diagnosed PNET patient and the TC-71 cell line was derived from a tumor recurrent after chemotherapy in a Ewing's sarcoma patient.
# (§4) The cells were cultured in DMEM media supplemented with 10% FBS, 1% L-glutamate, 1% sodium pyruvate, 1% penicillin/streptomycin, and 1% non-essential amino acids in a humidified atmosphere at 37° C. and in 5% CO2. The ratio of cells to well surface and media volume was kept constant in all experiments.
# (§5) Treated cells were imaged with an IVIS200 system (Xenogen Corporation, Alameda, Calif.) using the bioluminescent imaging function. An average of three kinetic bioluminescent acquisitions was obtained within 5 min Regions of interest were automatically drawn over wells and quantified with Living Image Software version 2.50.1. Data was analyzed based on total photon flux emission minus the background photon flux of blank wells. Three separate experiments were performed, with six replicate wells for each data point.
# [5] = tested on: 3T3 fibroblast cells; settings: same doses as tested on TC-32 and TC-71 cells
# Description: as §3, §4, §5
# [6] = tested on: TC-71 cells; assay: cells; settings: Homo sapiens, TC-71, 24 h, read-out: EC50 (concentration of drug that inhibits growth of the tumor cells by 50% as compared to vehicle-treated control)
# Excerpt: (§1) The combination index (CI) accounts for the dose response of single drugs to determine the combination effect. […] Enzyme Regul. 22:27-55. The equation for calculating CI is as follows: […]
# [7] = tested on: TC-32 cells; assay: cells; settings: Homo sapiens, TC-32, 24 h, read-out: EC50 (concentration of drug that inhibits growth of the tumor cells by 50% as compared to vehicle-treated control)
# Excerpt: as §1
# [8] = metformin 500-1000 mg/day; cited from earlier work
Structure (SMILES),Side-effects limiting clinical utility ([1]; clinical use),Share of sarcomas that respond to the drug ([1]; standard systemic therapy) [%],"Expression of 9 DNA repair genes (PRKDC, LIG4, MPG, ACTB, NEIL2, MLH1, RPA3, ATXN3, ERCC5) [2]","Expression of 11 DNA repair genes (MMS19, LIG4, B2M, RFC1, PARP2, BRCA2, TREX1, XPC, RAD23A, MUTYH, APEX1) [3]",Cytotoxicity [4],Cytotoxicity [5],pEC50 [6],pEC50 [7],Plasma levels [8],"Plasma levels, molar equivalent [8] [µM]"
COc1cccc2c1C(=O)c1c(O)c3c(c(O)c1C2=O)C[C@@](O)(C(=O)CO)C[C@@H]3O[C@H]1C[C@H](N)[C@H](O)[C@H](C)O1 [doxorubicin],irreversible cardiac toxicity,20,,,,,,,,
"Cc1ccc(NC(=O)c2ccc(CN3CCN(C)CC3)cc2)cc1Nc1nccc(-c2cccnc2)n1 [imatinib, imatinib mesylate]",,,significantly up-regulated,significantly up-regulated,did not show any cytotoxicity,did not show any cytotoxicity,,,,
"CN(C)C(=N)N=C(N)N [metformin, Metformin hydrochloride]",,,,,did not show any cytotoxicity,did not show any cytotoxicity,1.94,1.93,about 1.1 mg/L,7
